From ChEMBL document CHEMBL4196070, “Development of Piperazinediones as dual inhibitor for treatment of Alzheimer's disease” (Eur J Med Chem, 2018)
Activity calls are given as the source filed them. The calls are words filed in the database; no cut-off is given here.

Legend:
[1] = Antioxidant activity assessed as DPPH radical scavenging activity at 10 uM after 25 mins; format: functional
[2] = Antioxidant activity assessed as DPPH radical scavenging activity at 20 uM after 25 mins; format: functional
[3] = Selectivity index, ratio of IC50 for electric eel AChE to IC50 for equine serum BuChE
Mus musculus [4] = assay: Antialzheimer activity in Swiss albino mouse assessed as reversal of scopolamine-induced AChE level in brain at 10 mg/kg, ip administered once daily for 7 days followed by scopalamine challenge using acetylthiocholine iodide as substrate by Ellman's method; format: functional, organism-based
Mus musculus [5] = assay: Neuroprotective activity in scopolamine-induced amnesia Swiss albino mouse model assessed as decrease in neurodegenerative lesions in brain at 10 mg/kg, ip administered once daily for 7 days followed by scopolamine challenge by histopathological method; format: functional, organism-based
Mus musculus [6] = assay: Anxiolytic activity in Swiss albino mouse assessed as increase in time spent in novel arm at 20 mg/kg, ip administered once daily for 7 days prior to 4 hrs of training followed by scopolamine challenge and measured after 5 mins by Y-maze test; format: functional, organism-based
Mus musculus [7] = assay: Reversal of scopolamine-induced neophobia in Swiss albino mouse assessed as increase in number of novel arm entries at 5 to 10 mg/kg, ip administered once daily for 7 days prior to 4 hrs of training followed by scopolamine challenge and measured after 5 mins by Y-maze test; format: functional, organism-based
Mus musculus [8] = assay: Reversal of scopolamine-induced anxiety in Swiss albino mouse assessed as increase in number of novel arm entries at 5 to 10 mg/kg, ip administered once daily for 7 days prior to 4 hrs of training followed by scopolamine challenge and measured after 5 mins by Y-maze test; format: functional, organism-based
Mus musculus [9] = assay: Restoration of brain mitochondrial membrane potential in scopolamine-induced Swiss albino mouse amnesia model at 5 mg/kg, ip administered once daily for 7 days followed by scopolamine challenge by tetramethylrhodamine dye-based fluorescence assay; format: functional, organism-based
Mus musculus [10] = assay: Restoration of brain catalase level in scopolamine-induced Swiss albino mouse amnesia model at 10 mg/kg, ip administered once daily for 7 days followed by scopolamine challenge by spectrophotometric analysis; format: functional, organism-based
Mus musculus [11] = assay: Reversal of scopolamine-induced amnesic effect in Swiss albino mouse assessed as reversal of lowered spontaneous alteration at 10 mg/kg, ip administered once daily for 7 days prior to 4 hrs of training followed by scopolamine challenge and measured after 5 mins by Y-maze test; format: functional, organism-based
Mus musculus [12] = assay: Reversal of scopolamine-induced memory deficit in Swiss albino mouse assessed as increase in transfer latency time of retention trial at 10 mg/kg, ip administered once daily for 7 days followed by scopolamine challenge and subsequent training session for 5 mins by passive avoidance test; format: functional, organism-based
Mus musculus [13] = assay: Reversal of scopolamine-induced anxiety in Swiss albino mouse assessed as increase in number of novel arm entries at 10 mg/kg, ip administered once daily for 7 days prior to 4 hrs of training followed by scopolamine challenge and measured after 5 mins by Y-maze test; format: functional, organism-based
Mus musculus [14] = assay: Reversal of scopolamine-induced anxiety in Swiss albino mouse assessed as increase in number of novel arm entries at 5 mg/kg, ip administered once daily for 7 days prior to 4 hrs of training followed by scopolamine challenge and measured after 5 mins by Y-maze test; format: functional, organism-based
Mus musculus [15] = assay: Reversal of scopolamine-induced memory deficit in ip dosed Swiss albino mouse assessed as increase in transfer latency time of retention trial administered once daily for 7 days followed by scopolamine challenge and subsequent training session for 5 mins by passive avoidance test; format: functional, organism-based
[16] = target: Acetylcholinesterase (Electrophorus electricus) (UniProt O42275); assay: Ratio of Vmax to Km for substrate for inhibition of electric eel AChE at 20 nM preincubated for 30 mins followed acetylthiocholine iodide substrate addition by Lineweaver-Burk plot analysis
[17] = target: Acetylcholinesterase (Electrophorus electricus) (UniProt O42275); assay: Ratio of Vmax to Km for substrate for inhibition of electric eel AChE at 40 nM preincubated for 30 mins followed acetylthiocholine iodide substrate addition by Lineweaver-Burk plot analysis
[18] = target: Acetylcholinesterase (Electrophorus electricus) (UniProt O42275); assay: Ratio of Vmax to Km for substrate for inhibition of electric eel AChE at 10 nM preincubated for 30 mins followed acetylthiocholine iodide substrate addition by Lineweaver-Burk plot analysis
[19] = Metal chelating activity assessed as compound-Cu2+ complex formation at 600 uM after 8 hrs by UV spectroscopic analysis
Mus musculus [20] = assay: Reversal of scopolamine-induced amnesic effect in Swiss albino mouse assessed as reversal of lowered spontaneous alteration at 5 mg/kg, ip administered once daily for 7 days prior to 4 hrs of training followed by scopolamine challenge and measured after 5 mins by Y-maze test; format: functional, organism-based
Mus musculus [21] = assay: Antialzheimer activity in Swiss albino mouse assessed as reversal of scopolamine-induced AChE level in brain at 5 mg/kg, ip administered once daily for 7 days followed by scopalamine challenge using acetylthiocholine iodide as substrate by Ellman's method; format: functional, organism-based
Mus musculus [22] = assay: Reversal of scopolamine-induced neophobia in Swiss albino mouse assessed as increase in number of novel arm entries at 5 mg/kg, ip administered once daily for 7 days prior to 4 hrs of training followed by scopolamine challenge and measured after 5 mins by Y-maze test; format: functional, organism-based
Mus musculus [23] = assay: Reversal of scopolamine-induced neophobia in Swiss albino mouse assessed as increase in number of novel arm entries at 10 mg/kg, ip administered once daily for 7 days prior to 4 hrs of training followed by scopolamine challenge and measured after 5 mins by Y-maze test; format: functional, organism-based

Chain of Acetylcholinesterase (Electrophorus electricus) (O42275 24-633 limits assumed): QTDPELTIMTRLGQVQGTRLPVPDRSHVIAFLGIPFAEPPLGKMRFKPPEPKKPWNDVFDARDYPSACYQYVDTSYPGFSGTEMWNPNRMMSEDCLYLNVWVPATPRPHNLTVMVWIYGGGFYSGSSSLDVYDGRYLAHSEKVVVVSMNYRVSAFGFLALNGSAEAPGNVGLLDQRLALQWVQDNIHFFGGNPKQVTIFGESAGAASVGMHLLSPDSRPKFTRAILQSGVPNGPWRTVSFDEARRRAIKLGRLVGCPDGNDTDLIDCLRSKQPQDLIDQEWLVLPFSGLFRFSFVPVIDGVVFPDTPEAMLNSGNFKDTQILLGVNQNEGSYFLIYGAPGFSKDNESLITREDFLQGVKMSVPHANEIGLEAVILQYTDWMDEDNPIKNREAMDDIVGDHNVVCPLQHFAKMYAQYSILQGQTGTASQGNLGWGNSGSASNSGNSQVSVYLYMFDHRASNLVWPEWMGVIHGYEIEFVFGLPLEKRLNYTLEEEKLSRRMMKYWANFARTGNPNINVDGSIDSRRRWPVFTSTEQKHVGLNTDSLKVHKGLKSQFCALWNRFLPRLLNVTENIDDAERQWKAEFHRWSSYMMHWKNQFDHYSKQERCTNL

SMILES | Activity [1] [%] | Activity [2] [%] | Ratio IC50 [3] | also measured
O=C1C(Cc2ccccc2)N(S(=O)(=O)c2cccc(O)c2)C(=O)C(Cc2ccccc2)N1S(=O)(=O)c1cccc(O)c1 (stereo unspecified) | 57.1 | 66.2 | 0.3 | –
COc1ccc(S(=O)(=O)N2CC(=O)N(S(=O)(=O)c3ccc(OC)cc3)CC2=O)cc1 | 48.6 | 57.6 | < 0.5 | –
O=C1C(Cc2ccccc2)N(S(=O)(=O)c2cccc(Br)c2)C(=O)C(Cc2ccccc2)N1S(=O)(=O)c1cccc(Br)c1 (stereo unspecified) | 46.7 | 64.3 | 0.4 | –
O=C1CN(S(=O)(=O)c2ccc(Br)cc2)C(=O)CN1S(=O)(=O)c1ccc(Br)cc1 | 47.1 | 60.4 | 0.4 | –
O=C1C(Cc2ccccc2)N(S(=O)(=O)c2ccc(Cl)cc2)C(=O)C(Cc2ccccc2)N1S(=O)(=O)c1ccc(Cl)cc1 (stereo unspecified) | 48.1 | 60 | 0.2 | Activity (Mus musculus [4]): Active; Activity (Mus musculus [5]): Active; Activity (Mus musculus [6]): Active; Activity (Mus musculus [7]): Active; Activity (Mus musculus [8]): Active; Activity (Mus musculus [9]): Active; Activity (Mus musculus [10]): Active; Activity (Mus musculus [11]): Active
Cc1ccc(S(=O)(=O)N2C(=O)C(c3ccccc3)N(S(=O)(=O)c3ccc(C)cc3)C(=O)C2c2ccccc2)cc1 (stereo unspecified) | 38.1 | 56.2 | < 0.4 | –
O=C1C(Cc2ccccc2)N(S(=O)(=O)c2ccc([N+](=O)[O-])cc2)C(=O)C(Cc2ccccc2)N1S(=O)(=O)c1ccc([N+](=O)[O-])cc1 (stereo unspecified) | 42.9 | 54.8 | 0.4 | –
O=C1CN(S(=O)(=O)c2cccc(Cl)c2)C(=O)CN1S(=O)(=O)c1cccc(Cl)c1 | 35.7 | 55.2 | 0.3 | –
O=C1C(c2ccccc2)N(S(=O)(=O)c2ccc(O)cc2)C(=O)C(c2ccccc2)N1S(=O)(=O)c1ccc(O)cc1 (stereo unspecified) | 52.9 | 65.2 | < 0.4 | –
COc1cc2c(cc1OC)C(=O)C(CC1CCN(Cc3ccccc3)CC1)C2 (stereo unspecified) | 60.1 | 74.6 | – | Activity (Mus musculus [12]): Active
CCCCS(=O)(=O)N1CC(=O)N(S(=O)(=O)CCCC)CC1=O | 65.7 | 56.7 | – | –
O=C1C(c2ccccc2)N(S(=O)(=O)c2cccc(Br)c2)C(=O)C(c2ccccc2)N1S(=O)(=O)c1cccc(Br)c1 (stereo unspecified) | 46.2 | 63.3 | 0.4 | –
Nc1ccc(S(=O)(=O)N2CC(=O)N(S(=O)(=O)c3ccc(N)cc3)CC2=O)cc1 | 55.7 | 62.9 | < 0.4 | –
O=C1C(Cc2ccccc2)N(S(=O)(=O)c2ccc(Br)cc2)C(=O)C(Cc2ccccc2)N1S(=O)(=O)c1ccc(Br)cc1 (stereo unspecified) | 47.6 | 64.8 | 0.3 | –
Cc1ccc(S(=O)(=O)N2CC(=O)N(S(=O)(=O)c3ccc(C)cc3)CC2=O)cc1 | 34.8 | 46.7 | < 0.6 | –
O=C1C(c2ccccc2)N(S(=O)(=O)c2ccc(Cl)cc2)C(=O)C(c2ccccc2)N1S(=O)(=O)c1ccc(Cl)cc1 (stereo unspecified) | 52.9 | 60.3 | 0.2 | Activity (Mus musculus [13]): inactive; Activity (Mus musculus [14]): Active; Activity (Mus musculus [15]): Dose-dependent effect; Vmax/Km [16]: 0.0696 U/min/nM; Vmax/Km [17]: 0.00052 U/min/nM; Activity (Mus musculus [5]): Active; Activity (Mus musculus [6]): Active; Vmax/Km [18]: 0.104 U/min/nM; Activity [19]: Active; Activity (Mus musculus [20]): Active; Activity (Mus musculus [21]): Active; Activity (Mus musculus [22]): Active; Activity (Mus musculus [9]): Active; Activity (Mus musculus [23]): inactive
CCCS(=O)(=O)N1CC(=O)N(S(=O)(=O)CCC)CC1=O | 31.4 | 59.2 | – | –
O=C1CN(S(=O)(=O)c2ccc(F)cc2)C(=O)CN1S(=O)(=O)c1ccc(F)cc1 | 37.1 | 50.5 | 0.4 | –
Nc1ccc(S(=O)(=O)N2C(=O)C(c3ccccc3)N(S(=O)(=O)c3ccc(N)cc3)C(=O)C2c2ccccc2)cc1 (stereo unspecified) | 56.2 | 66.7 | < 0.5 | –
O=C1CN(S(=O)(=O)c2ccc(Cl)cc2)C(=O)CN1S(=O)(=O)c1ccc(Cl)cc1 | 36.2 | 55.2 | 0.3 | –
O=C1O[C@H]([C@@H](O)CO)C(O)=C1O | 37.1 | 48.8 | – | –
O=C1C(c2ccccc2)N(S(=O)(=O)c2ccc([N+](=O)[O-])cc2)C(=O)C(c2ccccc2)N1S(=O)(=O)c1ccc([N+](=O)[O-])cc1 (stereo unspecified) | 42.4 | 54.3 | 0.3 | –
O=C1C(c2ccccc2)N(S(=O)(=O)c2ccc(Br)cc2)C(=O)C(c2ccccc2)N1S(=O)(=O)c1ccc(Br)cc1 (stereo unspecified) | 45.7 | 63.8 | 0.2 | –
O=C1C(Cc2ccccc2)N(S(=O)(=O)c2ccc(O)cc2)C(=O)C(Cc2ccccc2)N1S(=O)(=O)c1ccc(O)cc1 (stereo unspecified) | 58.1 | 68.6 | 0.3 | –
Cc1cccc(S(=O)(=O)N2C(=O)C(c3ccccc3)N(S(=O)(=O)c3cccc(C)c3)C(=O)C2c2ccccc2)c1 (stereo unspecified) | 38.6 | 55.2 | < 0.4 | –
O=C1CN(S(=O)(=O)c2ccccc2)C(=O)CN1S(=O)(=O)c1ccccc1 | 39.5 | 52.4 | – | –
